These results are taken from ChEMBL document CHEMBL1138333, “Discovery of the first nonpeptidic, small-molecule, highly selective somatostatin receptor subtype 5 antagonists: a chemogenomics approach” (J Med Chem, 2007).

The structures appear in SMILES notation. ≈ marks a conversion by molar mass, not a printed value. Where only a bound is given, the exact number is not on record here.

Data set [1] addresses T1, Somatostatin receptor type 5 (Homo sapiens, UniProt P35346). Description: Displacement of [125I]11-Tyr somatostatin-14 from human SST5R expressed in CHO cells. Type of data set: cell-based.
Data set [2] deals with Voltage-gated inwardly rectifying potassium channel KCNH2 (Homo sapiens, UniProt Q12809). Description: Inhibition of hERG channel. Format: toxicity.
Voltage-gated inwardly rectifying potassium channel KCNH2, sequence (Q12809 whole entry): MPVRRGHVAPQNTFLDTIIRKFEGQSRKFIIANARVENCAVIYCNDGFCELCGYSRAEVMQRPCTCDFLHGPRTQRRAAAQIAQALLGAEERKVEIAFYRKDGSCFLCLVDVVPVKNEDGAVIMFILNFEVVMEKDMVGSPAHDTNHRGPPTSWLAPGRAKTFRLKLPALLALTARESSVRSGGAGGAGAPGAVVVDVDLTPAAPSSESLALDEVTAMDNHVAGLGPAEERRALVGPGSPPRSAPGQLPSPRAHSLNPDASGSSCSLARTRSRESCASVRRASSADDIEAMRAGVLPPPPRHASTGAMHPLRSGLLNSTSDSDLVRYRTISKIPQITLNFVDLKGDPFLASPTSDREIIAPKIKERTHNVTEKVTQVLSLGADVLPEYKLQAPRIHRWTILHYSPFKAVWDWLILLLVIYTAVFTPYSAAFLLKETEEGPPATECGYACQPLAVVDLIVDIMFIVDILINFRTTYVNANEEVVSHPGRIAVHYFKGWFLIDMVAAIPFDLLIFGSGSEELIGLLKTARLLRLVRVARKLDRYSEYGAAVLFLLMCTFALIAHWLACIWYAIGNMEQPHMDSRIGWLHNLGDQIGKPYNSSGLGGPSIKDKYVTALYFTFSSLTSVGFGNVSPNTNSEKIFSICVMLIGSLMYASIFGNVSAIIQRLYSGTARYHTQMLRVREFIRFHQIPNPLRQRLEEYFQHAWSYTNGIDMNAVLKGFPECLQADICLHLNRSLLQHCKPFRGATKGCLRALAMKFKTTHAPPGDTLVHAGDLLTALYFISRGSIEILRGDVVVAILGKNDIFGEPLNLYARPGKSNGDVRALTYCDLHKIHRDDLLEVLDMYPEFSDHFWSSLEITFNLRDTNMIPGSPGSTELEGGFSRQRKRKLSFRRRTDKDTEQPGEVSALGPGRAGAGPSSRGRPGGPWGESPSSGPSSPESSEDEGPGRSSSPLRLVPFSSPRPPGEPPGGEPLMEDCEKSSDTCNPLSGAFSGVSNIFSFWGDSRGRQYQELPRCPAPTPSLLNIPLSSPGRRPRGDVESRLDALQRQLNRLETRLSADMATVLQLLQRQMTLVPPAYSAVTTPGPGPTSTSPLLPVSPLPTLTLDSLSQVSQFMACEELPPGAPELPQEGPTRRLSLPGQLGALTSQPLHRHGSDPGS
Data set [3] addresses Somatostatin receptor type 4 (Homo sapiens, UniProt P31391). Description: Binding affinity to human SST4R.
Data set [4] deals with Somatostatin receptor type 2 (Homo sapiens, UniProt P30874). Description: Binding affinity to human SST2R.
Somatostatin receptor type 2, sequence (P30874 whole entry): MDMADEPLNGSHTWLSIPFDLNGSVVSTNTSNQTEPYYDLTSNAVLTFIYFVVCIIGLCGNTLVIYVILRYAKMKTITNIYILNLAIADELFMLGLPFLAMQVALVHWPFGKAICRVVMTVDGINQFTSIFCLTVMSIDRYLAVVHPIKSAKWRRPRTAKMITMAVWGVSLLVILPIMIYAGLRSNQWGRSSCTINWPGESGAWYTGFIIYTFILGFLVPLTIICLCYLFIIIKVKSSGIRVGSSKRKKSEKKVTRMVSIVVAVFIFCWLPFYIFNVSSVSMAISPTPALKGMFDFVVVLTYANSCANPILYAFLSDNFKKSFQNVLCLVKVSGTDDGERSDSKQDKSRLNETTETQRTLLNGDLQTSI
For data set [5], the target named is Somatostatin receptor type 3 (Homo sapiens, UniProt P32745). Description: Binding affinity to human SST3R.
Somatostatin receptor type 3, sequence (P32745 whole entry): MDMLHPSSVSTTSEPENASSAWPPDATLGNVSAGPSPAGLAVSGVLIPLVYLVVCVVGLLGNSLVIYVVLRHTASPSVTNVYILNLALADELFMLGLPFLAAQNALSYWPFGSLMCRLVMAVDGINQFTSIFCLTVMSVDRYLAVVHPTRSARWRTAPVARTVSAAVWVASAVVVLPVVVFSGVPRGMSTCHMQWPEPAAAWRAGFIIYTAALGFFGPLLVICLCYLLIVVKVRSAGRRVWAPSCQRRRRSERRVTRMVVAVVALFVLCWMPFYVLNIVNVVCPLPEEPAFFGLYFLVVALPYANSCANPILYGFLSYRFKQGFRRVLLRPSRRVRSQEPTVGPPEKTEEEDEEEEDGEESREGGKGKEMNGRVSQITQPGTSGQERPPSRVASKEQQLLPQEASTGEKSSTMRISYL
Data set [6] concerns the target Somatostatin receptor type 1 (Homo sapiens, UniProt P30872). Description: Binding affinity to human SST1R.
For a further data set, the target named is Histamine H1 receptor (Homo sapiens, UniProt P35367). Description: Binding affinity to histamine H1 receptor.
Histamine H1 receptor, sequence (P35367 whole entry): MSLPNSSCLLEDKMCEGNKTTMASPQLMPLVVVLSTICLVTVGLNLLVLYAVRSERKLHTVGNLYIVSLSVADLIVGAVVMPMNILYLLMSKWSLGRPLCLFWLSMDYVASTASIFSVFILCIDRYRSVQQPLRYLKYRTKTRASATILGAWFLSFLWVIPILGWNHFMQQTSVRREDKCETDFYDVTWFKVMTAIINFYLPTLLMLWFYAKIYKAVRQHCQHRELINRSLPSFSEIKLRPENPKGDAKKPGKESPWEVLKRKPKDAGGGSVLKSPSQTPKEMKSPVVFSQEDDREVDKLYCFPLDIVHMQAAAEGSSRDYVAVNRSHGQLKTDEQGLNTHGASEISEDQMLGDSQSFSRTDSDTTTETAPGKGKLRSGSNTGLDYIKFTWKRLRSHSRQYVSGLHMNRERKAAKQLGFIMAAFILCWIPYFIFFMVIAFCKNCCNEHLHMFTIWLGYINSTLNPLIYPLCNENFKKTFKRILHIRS
Data set [7] addresses T1, Somatostatin receptor type 5. Description: Antagonist activity at human SST5R expressed in CHO cells assessed as reversal of somatostatin-14 induced cAMP response. Format: functional, cell-based.
Data set [8] is described as follows: Passive membrane permeability by PAMPA. Format: ADME. To be noted: read-out: permeability.
Data set [9] can be described thus: Distribution coefficient, log D at pH 7.4. Format: physicochemical. To be noted: octanol/water.
The nature of data set [10]: Solubility at pH 6.5 by lyophilisation solubility assay. Format: physicochemical. To be noted: buffer.

T1 sequence (P35346 whole entry): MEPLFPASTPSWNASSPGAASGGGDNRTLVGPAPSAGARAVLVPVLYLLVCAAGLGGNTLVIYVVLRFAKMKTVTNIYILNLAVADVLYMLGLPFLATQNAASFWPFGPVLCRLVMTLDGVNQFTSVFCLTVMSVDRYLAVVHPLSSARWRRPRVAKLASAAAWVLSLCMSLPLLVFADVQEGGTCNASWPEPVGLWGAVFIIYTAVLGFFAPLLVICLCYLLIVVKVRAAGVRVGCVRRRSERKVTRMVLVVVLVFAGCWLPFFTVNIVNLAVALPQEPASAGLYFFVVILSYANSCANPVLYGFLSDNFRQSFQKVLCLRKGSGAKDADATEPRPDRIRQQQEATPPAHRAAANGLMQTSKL
Somatostatin receptor type 1, sequence (P30872 whole entry): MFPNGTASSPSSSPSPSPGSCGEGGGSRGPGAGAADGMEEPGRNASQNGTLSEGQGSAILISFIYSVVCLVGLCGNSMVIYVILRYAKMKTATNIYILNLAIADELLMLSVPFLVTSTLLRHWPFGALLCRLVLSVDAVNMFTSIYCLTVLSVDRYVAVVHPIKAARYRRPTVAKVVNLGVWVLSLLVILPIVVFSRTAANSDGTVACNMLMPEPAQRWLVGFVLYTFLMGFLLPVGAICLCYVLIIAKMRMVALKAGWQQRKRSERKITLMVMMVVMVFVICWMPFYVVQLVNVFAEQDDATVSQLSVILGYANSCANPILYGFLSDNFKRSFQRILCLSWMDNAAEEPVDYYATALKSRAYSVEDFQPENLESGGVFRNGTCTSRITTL
Somatostatin receptor type 4, sequence (P31391 whole entry): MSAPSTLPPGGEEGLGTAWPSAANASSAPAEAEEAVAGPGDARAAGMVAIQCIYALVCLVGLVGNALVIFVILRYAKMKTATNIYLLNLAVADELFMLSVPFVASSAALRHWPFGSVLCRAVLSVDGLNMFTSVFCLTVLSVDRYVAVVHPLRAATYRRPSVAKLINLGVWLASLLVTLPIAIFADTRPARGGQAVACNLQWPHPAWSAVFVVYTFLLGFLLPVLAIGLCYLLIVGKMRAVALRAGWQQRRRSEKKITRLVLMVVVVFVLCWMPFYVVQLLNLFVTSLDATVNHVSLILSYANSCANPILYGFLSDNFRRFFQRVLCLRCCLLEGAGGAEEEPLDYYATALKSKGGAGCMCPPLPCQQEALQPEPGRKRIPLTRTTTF

Compound `COc1cc(CN2CCC(Nc3nc4ccccc4s3)CC2)ccc1O` showed a Ki in data set [1] of 5130 nM.

For the compound `CCOc1cc(CN2CCC(Nc3nc4ccccc4o3)CC2)ccc1OC(F)(F)F`, in [1], affinity was put at a Ki of 524 nM.

`CCOc1cc(CN2CCC(Nc3nc4cc(S(N)(=O)=O)ccc4o3)CC2)ccc1Cl`: in data set [1], the affinity, expressed as Ki, was 17 nM.

On to `CCOc1cc(CN2CCC(Nc3nc4ccccc4o3)CC2)ccc1F`, for which the affinity in data set [1] corresponds to a Ki of 194 nM.

Turning to `CCOc1cc(CN2CCC(Nc3nc4cc(S(N)(=O)=O)ccc4o3)CC2)ccc1OC`, half-maximal inhibition in [2] (IC50) required 3500 nM. The compound further displayed a Ki in data set [1] of 185 nM.

`COc1cc(CN2CCC(Nc3nc4ccccc4n3Cc3ccc(F)cc3)CC2)c(OC)c2ccccc12` returned an inhibition constant (Ki) in data set [1] of 1230 nM.

In data set [1], `Fc1ccc(Cn2c(NC3CCN(CCc4ccc(OC(F)(F)F)cc4)CC3)nc3ccccc32)cc1` displayed a Ki above 10000 nM.

Consider `CCOc1cc(CN2CCC(Nc3nc4ccccc4o3)CC2)ccc1Cl`, for which the Ki in [1] amounted to 113 nM.

As to `CCOc1cc(CN2CCC(Nc3nc4cc(S(N)(=O)=O)ccc4o3)CC2)cc(OCC)c1N`, the Ki was above 10000 nM in data set [3]; above 10000 nM in data set [4]; 13 nM in [1]; above 10000 nM in data set [5]; above 10000 nM in [6].

In [1], `CCOc1cc(CN2CCC(Nc3nc4ccccc4s3)CC2)ccc1O` came in with a Ki of 149 nM.

In [1], `CCOc1cc(CN2CCC(Nc3nc4ccccc4o3)CC2)ccc1C` returned a Ki of 37 nM.

`Fc1ccc(Cn2c(NC3CCN(Cc4ccccc4)CC3)nc3ccccc32)cc1` came in with a Ki in data set [1] of 6120 nM.

Turning to `Fc1ccc(Cn2c(NC3CCN(Cc4ccc5c(c4)CCO5)CC3)nc3ccccc32)cc1`, affinity in [1] was put at a Ki of 1630 nM.

The compound `CCOc1cc(CN2CCC(Nc3nc4ccccc4o3)CC2)ccc1O` registered a Ki in [1] of 66 nM.

With `CCOc1cc(CN2CCC(Nc3nc4ccccc4o3)CC2)ccc1OC`, the values for the IC50 in data set [2] and in data set [7] were below 100 nM and 740 nM, respectively. Further, the values for the inhibitory constant (Ki) (on Histamine H1 receptor; in [1]) were 624 nM and 121 nM, respectively. In [8], the Papp worked out at 4.44 ×10⁻⁶ cm/s. Further, the logD in data set [9] came out at 2.92. The compound also came in with a solubility in [10] of 130 µg/mL (≈ 341 µM).

`COc1ccc(CN2CCC(Nc3nc4ccccc4o3)CC2)cc1OC1CCCC1` displayed a Ki in data set [1] of 83 nM.

Regarding `Cc1cccc2c(CN3CCC(Nc4nc5ccccc5n4Cc4ccc(F)cc4)CC3)c[nH]c12`, in [1], the Ki was 1440 nM.

In [1], `Fc1ccc(Cn2c(NC3CCN(Cc4ccc5[nH]ccc5c4)CC3)nc3ccccc32)cc1` had an inhibition constant (Ki) of 3950 nM.

`CCOc1cc(CN2CCC(Nc3nc4ccccc4s3)CC2)ccc1OC` returned a Ki in data set [1] of 326 nM.

`Fc1ccc(CCN2CCC(Nc3nc4ccccc4n3Cc3ccc(F)cc3)CC2)cc1` displayed a Ki in data set [1] above 10000 nM.

In the case of `COc1ccc(CN2CCC(Nc3nc4ccccc4n3Cc3ccc(F)cc3)CC2)cc1`, the Ki in data set [1] was 3950 nM.

`COc1cc(CN2CCC(Nc3nc4ccccc4o3)CC2)c(OC)c2ccccc12`: the Ki in data set [1] stood at 794 nM.

For `CCCOc1cc(CN2CCC(Nc3nc4ccccc4o3)CC2)ccc1OC`, the Ki in [1] turned out to be 293 nM.

In data set [1], `Fc1ccc(Cn2c(NC3CCN(CC4CCc5ccccc5C4)CC3)nc3ccccc32)cc1` (stereo unspecified) yielded a Ki above 10000 nM.

Regarding `COc1ccc(CN2CCC(Nc3nc4ccccc4s3)CC2)cc1OC`, the Ki in [1] was determined as 1790 nM.

Turning to `Fc1ccc(Cn2c(NC3CCN(CCCc4ccccc4)CC3)nc3ccccc32)cc1`, the Ki in data set [1] was above 10000 nM.

As for `COc1cc(CN2CCC(Nc3nc4ccccc4s3)CC2)c(OC)c2ccccc12`, the affinity in [1] corresponds to a Ki of 683 nM.

In turn, `COc1ccc(CN2CCC(Nc3nc4ccccc4o3)CC2)cc1OCC(C)C` showed a Ki in [1] of 23 nM.

In turn, `Fc1ccc(Cn2c(NC3CCN(CCc4ccccc4)CC3)nc3ccccc32)cc1` had a Ki in data set [1] of 5000 nM.

`COc1ccc(CCN2CCC(Nc3nc4ccccc4n3Cc3ccc(F)cc3)CC2)cc1` [ASTEMIZOLE] showed a Ki in [1] of 4070 nM.
